# Experimental data published in patent US7064207B2, “Androgen receptor antagonists” (Warner Lambert Company LLC, priority 2003, dated 2006).
# Target: T1, androgen receptor (Homo sapiens, UniProt P10275)
# T1 sequence (P10275 1-920 Q868H): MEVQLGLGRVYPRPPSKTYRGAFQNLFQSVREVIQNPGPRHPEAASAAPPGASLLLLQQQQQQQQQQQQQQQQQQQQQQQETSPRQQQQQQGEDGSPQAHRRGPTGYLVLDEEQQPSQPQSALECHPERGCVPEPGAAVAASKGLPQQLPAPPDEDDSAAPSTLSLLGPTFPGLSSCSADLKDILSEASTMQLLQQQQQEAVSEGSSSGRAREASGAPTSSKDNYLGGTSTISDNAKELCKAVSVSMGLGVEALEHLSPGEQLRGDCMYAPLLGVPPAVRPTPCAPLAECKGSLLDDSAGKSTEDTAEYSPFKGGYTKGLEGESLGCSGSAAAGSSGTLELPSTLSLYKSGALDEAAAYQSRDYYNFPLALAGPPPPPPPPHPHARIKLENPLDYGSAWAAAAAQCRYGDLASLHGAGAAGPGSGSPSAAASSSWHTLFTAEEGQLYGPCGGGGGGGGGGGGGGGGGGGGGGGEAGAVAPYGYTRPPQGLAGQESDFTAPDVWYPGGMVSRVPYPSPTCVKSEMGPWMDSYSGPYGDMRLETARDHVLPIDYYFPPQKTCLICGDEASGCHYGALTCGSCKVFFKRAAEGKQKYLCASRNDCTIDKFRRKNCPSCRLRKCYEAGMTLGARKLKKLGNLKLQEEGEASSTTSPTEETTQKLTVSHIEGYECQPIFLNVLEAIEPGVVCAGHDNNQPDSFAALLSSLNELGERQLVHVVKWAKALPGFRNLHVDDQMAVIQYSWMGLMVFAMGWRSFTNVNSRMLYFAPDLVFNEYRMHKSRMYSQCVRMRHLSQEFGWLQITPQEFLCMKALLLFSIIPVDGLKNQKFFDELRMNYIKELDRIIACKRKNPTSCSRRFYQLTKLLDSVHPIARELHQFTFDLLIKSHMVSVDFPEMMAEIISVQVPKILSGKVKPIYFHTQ
# Assay: AR Antagonist Cell Assay (MMTV-luciferase reporter, inhibition of DHT induction)
# Format: cell-based
# Conditions: MDA-MB453-MMTV clone 54-19 cells, 100 pM DHT, 17 hr, luciferase; read-out: Cell IC50
# Procedure: The compounds ability to antagonize the effects of androgen on the androgen receptor were determined in the protocol described immediately below.
# Experimental Procedure for AR Antagonist Cell Assay
# Cell line: MDA-MB453-MMTV clone 54–19. This cell line is a stable transfected cell line with MDA-MB453 cell background (human breast tumor cell expressing high level of androgen receptor). A MMTV minimal promoter containing ARE was first cloned in front of a firefly luciferase reporter gene. Then the cascade was cloned into transfection vector pUV120puro. Electroporation method was used for transfecting MDA-MB-453 cell. Puromycin resistant stable cell line was selected. Cell Culture Media and Reagents:
# Culture medium: DMEM (high glucose, Gibco cat #: 11960-044), 10% FBS, and 1% L-glutamine
# Plating medium: DMEM (phenol red free), 10% charcoal treated HyClone serum, 1% L-glutamine
# Assay medium: DMEM (phenol red free), 1% charcoal treated HyClone serum, 1% L-glutamine, and 1% penicillin/streptomycin
# 3× luciferase buffer: 2% beta-mercaptoethanol, 0.6% ATP, 0.0135% luciferine in cell lysis buffer
# • 1. Cells are maintained in culture medium, splitting cells when they reach 80–90% confluence • 2. To test compounds, 10,000 cells/well are plated to opaque 96 cell culture plate in 100 ul/well plating medium, culture for overnight at 37° C. in cell culture incubator • 3. Carefully remove plating medium, then add 80 ul/well of pre-warmed assay medium, add 10 ul/well testing compound (final concentration at 10 uM or 1 uM), incubate at 37° C. for 30 minutes • 4. Add 10 ul/well freshly prepared DHT (final concentration at 100 pM) to each well, incubate at 37° C. for 17 hr (overnight) • 5. Add 50 ul/well 3× luciferase buffer, incubate at room temperature for 5 minutes, then count on Luminometer The fold induction over background by 100 pM DHT in the absence of testing compounds is standardized as 100% and experimental result is expressed as percentage of inhibition by testing compounds.
row,IC50 [µM],SMILES
1,> 10,"O=c1cc(C(F)(F)F)c2cc(S(=O)(=O)N3CCN(c4ccccn4)CC3)ccc2[nH]1 [Example 40, 6-(4-Pyridin-2-ylpiperazine-1-sulfonyl)-4-trifluoromethyl-1H-quinolin-2-one]"
2,3.6,"O=c1cc(C(F)(F)F)c2cc(S(=O)(=O)N3CCCC3CN3CCCC3)ccc2[nH]1 (stereo not drawn) [Example 41, 6-(2-Pyrrolidin-1-ylmethyl-pyrrolidine-1-sulfonyl)-4-trifluoromethyl-1H-quinolin-2-one]"
3,> 10,"O=c1cc(C(F)(F)F)c2cc(S(=O)(=O)N3CCN(c4cnccn4)CC3)ccc2[nH]1 [Example 42, 6-(2,3,5,6-Tetrahydro-[1,2′]bipyrazinyl-4-sulfonyl)-4-trifluoromethyl-1H-quinolin-2-one]"

# Second part, the compound before the results:
row,SMILES,IC50 [µM]
1,"O=c1cc(C(F)(F)F)c2cc(S(=O)(=O)N3CCN(CCc4cccs4)CC3)ccc2[nH]1 [Example 32, 6-[4-(2-Thiophen-2-ylethyl)piperazine-1-sulfonyl]-4-trifluoromethyl-1H-quinolin-2-one]",2.66
2,"O=c1cc(C(F)(F)F)c2cc(S(=O)(=O)N3CCCC3)ccc2[nH]1 [Example 33, 6-(Pyrrolidine-1-sulfonyl)-4-trifluoromethyl-1H-quinolin-2-one]",0.31
3,"O=c1cc(C(F)(F)F)c2cc(S(=O)(=O)N3CCCCCC3)ccc2[nH]1 [Example 36, 6-(Azepane-1-sulfonyl)-4-trifluoromethyl-1H-quinolin-2-one]",0.18
4,"CC1CCCCN1S(=O)(=O)c1ccc2[nH]c(=O)cc(C(F)(F)F)c2c1 (stereo not drawn) [Example 37, 6-(2-Methylpiperidine-1-sulfonyl)-4-trifluoromethyl-1H-quinolin-2-one]",1.55
5,"O=c1cc(C(F)(F)F)c2cc(S(=O)(=O)N3CCN(C4CCCC4)CC3)ccc2[nH]1 [Example 38, 6-(4-Cyclopentylpiperazine-1-sulfonyl)-4-trifluoromethyl-1H-quinolin-2-one]",> 10
6,"O=c1cc(C(F)(F)F)c2cc(S(=O)(=O)N3CCC3)ccc2[nH]1 [Example 39, 6-(Azetidine-1-sulfonyl)-4-trifluoromethyl-1H-quinolin-2-one]",0.43
